PubChem BioAssay (NCI)
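In this assay, cells in 96-well plates receive the compound at five concentrations for 48 hours. Endpoints are linearly interpolated between the surrounding concentrations. At the TGI there is no net growth.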

Tests used:
Experiment in all cases: DTP human tumour cell line panel, 48 h
DU-145 prostate = system: DU-145 prostate
T-47D breast = system: T-47D breast
MDA-MB-231 breast = system: MDA-MB-231 breast
UO-31 renal = system: UO-31 renal
MOLT-4 leukemia = system: MOLT-4 leukemia
SW-620 colon = system: SW-620 colon
M14 melanoma = system: M14 melanoma
RPMI-8226 leukemia = system: RPMI-8226 leukemia
NCI-H23 lung = system: NCI-H23 lung
HOP-92 NSCLC = system: HOP-92 NSCLC
BT-549 breast = system: BT-549 breast
HT29 colon = system: HT29 colon
A498 renal = system: A498 renal

CC1N=C(c2ccccc2)OC1=O (stereo unspecified)
TGI (DU-145 prostate): > 100 µM
TGI (T-47D breast): > 100 µM
TGI (MDA-MB-231 breast): > 100 µM
TGI (UO-31 renal): > 100 µM
TGI (MOLT-4 leukemia): > 100 µM
TGI (SW-620 colon): > 100 µM
TGI (M14 melanoma): > 100 µM
TGI (RPMI-8226 leukemia): > 100 µM
TGI (NCI-H23 lung): > 100 µM
TGI (HOP-92 NSCLC): > 100 µM
TGI (BT-549 breast): > 100 µM
TGI (HT29 colon): > 100 µM
TGI (A498 renal): > 100 µM

COC1C(=O)N(SC)C1c1ccccc1Cl (stereo unspecified)
TGI (DU-145 prostate): > 100 µM
TGI (T-47D breast): 58.5 µM
TGI (MDA-MB-231 breast): 87.3 µM
TGI (UO-31 renal): 33.3 µM
TGI (MOLT-4 leukemia): 31.6 µM
TGI (SW-620 colon): 45.6 µM
TGI (M14 melanoma): 94.2 µM
TGI (RPMI-8226 leukemia): 44.5 µM
TGI (NCI-H23 lung): > 100 µM
TGI (HOP-92 NSCLC): > 100 µM
TGI (BT-549 breast): 54.2 µM
TGI (HT29 colon): 40.7 µM
TGI (A498 renal): > 100 µM
